Assay results published in patent US11370769B2, “TRPC5 inhibitors and methods of using same” (BOARD OF REGENTS OF THE UNIVERSITY OF NEBRASKA, priority 2017, dated 2022).

Target: T1, TRPC6 channels (Rattus norvegicus, UniProt Q99N78)
T1 construct: Acutely isolated glomeruli were prepared as described above; from tissue; host or cells: acutely isolated glomeruli (podocytes) of AT1R Tg and WT rats
T1 sequence (Q99N78 1-930): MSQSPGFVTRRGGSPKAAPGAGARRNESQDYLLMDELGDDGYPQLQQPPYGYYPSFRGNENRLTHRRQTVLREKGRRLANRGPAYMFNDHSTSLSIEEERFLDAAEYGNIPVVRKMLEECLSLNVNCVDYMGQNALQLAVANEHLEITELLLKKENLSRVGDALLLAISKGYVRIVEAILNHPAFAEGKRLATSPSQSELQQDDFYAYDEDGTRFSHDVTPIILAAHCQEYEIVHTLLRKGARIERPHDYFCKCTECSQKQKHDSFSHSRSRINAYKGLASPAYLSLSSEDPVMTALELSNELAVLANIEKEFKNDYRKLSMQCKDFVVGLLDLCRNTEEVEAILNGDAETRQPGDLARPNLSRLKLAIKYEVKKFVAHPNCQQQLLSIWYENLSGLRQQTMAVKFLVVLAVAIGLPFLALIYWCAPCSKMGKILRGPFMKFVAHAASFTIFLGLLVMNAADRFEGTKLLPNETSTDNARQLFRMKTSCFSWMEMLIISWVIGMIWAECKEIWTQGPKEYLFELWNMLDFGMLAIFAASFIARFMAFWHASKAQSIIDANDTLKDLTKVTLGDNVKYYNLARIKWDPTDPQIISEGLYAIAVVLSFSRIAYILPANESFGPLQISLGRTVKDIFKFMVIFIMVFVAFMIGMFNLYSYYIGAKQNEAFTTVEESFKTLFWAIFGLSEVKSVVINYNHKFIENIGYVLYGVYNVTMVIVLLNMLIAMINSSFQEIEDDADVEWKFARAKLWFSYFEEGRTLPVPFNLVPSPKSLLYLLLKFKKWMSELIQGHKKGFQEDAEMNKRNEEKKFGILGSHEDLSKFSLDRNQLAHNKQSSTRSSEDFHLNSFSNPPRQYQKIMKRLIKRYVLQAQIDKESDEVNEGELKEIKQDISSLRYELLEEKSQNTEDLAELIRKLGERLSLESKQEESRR
Assay: Glomerular inside-out single-channel recordings, OAG-induced conductances
Assay type: cell-based
Details: glomeruli from age matched AT1R Tg rats and WT controls
Procedure: Acute glomeruli isolation and Ca^2+-imaging: WT and AT1R Tg littermates were killed and kidneys were quickly dissected and washed with ice-cold PBS. After isolation using the sieving technique as previously described (11), glomeruli were incubated with the Ca^2+ indicator Fura2-AM (1 μM; Invitrogen) at 37° C. for 15 min. The extracellular solution for Ca^2+-imaging contained (in mM) 140 NaCl, 5 KCl, 10 HEPES, 2 MgCl2, 2 CaCl2, 10 glucose, with pH7.4 adjusted with NaOH. Glomerular Ca^2+-imaging was performed using an inverted microscope (Olympus IX70) with a high-speed CCD camera (Hamamatsu Photonics). Images were taken and analyzed using the Metafluor software (Molecular Devices). It should be noted that Fura-2 is most often taken up by podocytes at the periphery of the isolated glomerulus, but the specificity of recordings in podocytes is best confirmed by patch clamp electrophysiology, as described below.
Glomerular single-channel recordings: Acutely isolated glomeruli were prepared as described above. Single-channel recordings were carried out using an Axopatch 200B and Digidata 1550A (Molecular Devices). Bath and pipette solutions for glomerular single-channel recording contained (in mM) 135 CH3SO3Na, 5 CsCl, 2 CaCl2, 1 MgCl2, 10 HEPES, and 10 glucose with pH7.4 adjusted with NaOH. […]

SMILES: Cc1cc(N2CCCCC2)nc2ccccc12 [ML204, reference compound]
- inhibition of OAG-induced conductances: no inhibition
